Measurements published in patent US20140288090A1, “N-ARYLYLMETHYLINDAZOLE MODULATORS OF PPARG” (priority 2011, published 2014).
Like-named read-outs stand apart in the source and are kept apart here.

Assays:
GST-PPARG-LBD = target: T1, GST-PPARG-LBD (Homo sapiens, UniProt P37231); assay: Lanthascreen PPARG competitive binding assay (Invitrogen)
T1 construct: A mixture of 5 nM GST-PPARG-LBD; purchased Invitrogen
T1 sequence (P37231 238-503 limits assumed): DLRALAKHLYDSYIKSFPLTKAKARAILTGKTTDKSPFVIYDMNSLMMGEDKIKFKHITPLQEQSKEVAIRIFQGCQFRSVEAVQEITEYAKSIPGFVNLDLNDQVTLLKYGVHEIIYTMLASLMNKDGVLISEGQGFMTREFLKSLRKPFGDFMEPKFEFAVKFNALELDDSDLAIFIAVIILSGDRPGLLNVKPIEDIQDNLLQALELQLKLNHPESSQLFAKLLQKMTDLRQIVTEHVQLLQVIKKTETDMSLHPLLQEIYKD
Description: The assay was performed according to manufacturer protocol. A mixture of 5 nM GST-PPARG-LBD, 5 nM Tb-GST-antibody, 5 nM Fluormone Pan-PPAR. Green, and serial dilutions of the experimental compound, beginning at 10 μM downwards, was added to wells of black 384-well low-volume plates (Greiner) to a total volume of 18 μL. All dilutions were made in TR-FRET assay buffer C. DMSO at 2% final concentration was used as a no-ligand control. Experiment was performed in triplicate, and incubated for 2 hours in the dark prior to assay read in Perkin Elmer ViewLux ultra HTS microplate reader. FRET signal was measured by excitation at […] and emission at 520 nm for fluorcscein and 490 nm for terbium. Fold change over DMSO was calculated using GraphPad Prism Software (La Jolla, Calif.) by calculating 520 nm/490 nm ratio. Graphs were plotted as fold change of FRET signal for compound treatment over DMSO-only control.

[1] = tested on: PPARG (murine PPARg2 or full-length human PPARg co-transfected into COS-1 cells); assay: Cell-based transactivation assay (3x PPRE-luciferase reporter, COS-1 cells); settings: PPRE::Luc reporter
Description: PPRE is a DNA that contains a binding site for PPARG; thus PPRE is a PPAR response element, used herein as a promoter reporter. The binding site is a DR1 response element with the sequence [NT] repeated 3 times in tandem and then fused to a construct for luciferase. Thus, PPRE is the basis of the cell based transactivation assay described below. The plasmid DNA is co-transfected along with a plasmid for PPARG into COS-1 cells. After an overnight incubation, cells are treated with DMSO or compounds. […] Transfected cells were plated in white Perkin Elmer 384-well plates and incubated 4 hours. […] After 18 hour incubation, treated cells were developed with Brite Lite Plus (Perkin Elmer) and read in 384-well Luminescence Perkin Elmer EnVision Multilabel plate reader. Graphs were plotted in triplicate in GraphPad Prism Software as fold change of treated cells over DMSO control cells.

[2] = Table 3, Lantha 1, read-out: IC50 (nM) Lantha 1
[3] = Table 3, Lantha 2, read-out: IC50 (nM) Lantha 2

For `COCCNC(=O)c1ccc2c(c1)c(C)nn2Cc1ccc(-c2ccccc2C(=O)O)cc1` [compound 22], the IC50 (GST-PPARG-LBD; [2]) was over 100 nM and the IC50 (GST-PPARG-LBD; [3]) was 824 nM.
Work on `Cc1nn(Cc2ccc(-c3ccccc3C(=O)O)cc2)c2ccc(C(=O)N[C@H]3COc4ccccc4C3)cc12` [compound 33] yielded an IC50 (GST-PPARG-LBD; [3]) of 235 nM.
For `CCOCCNC(=O)c1ccc2c(c1)c(C)nn2Cc1ccc(-c2ccccc2C(=O)O)cc1` [compound 36], the IC50 (GST-PPARG-LBD; [2]) was 4420 nM and the IC50 (GST-PPARG-LBD; [3]) was 344 nM.
Compound `Cc1nn(Cc2ccc(C3(C(=O)O)CC3)cc2)c2ccc(C(=O)N[C@@H](C)c3ccc(Br)cc3)cc12` [compound 56] has an IC50 (GST-PPARG-LBD; [3]) of 144 nM.
In the case of `CC(C)c1nn(Cc2ccc(-c3ccccc3C(=O)O)cc2)c2ccc(C(=O)NC3CCCC3)cc12` [compound 48], the IC50 (GST-PPARG-LBD; [2]) is reported as 133 nM and the IC50 (GST-PPARG-LBD; [3]) is reported as 259 nM.
Work on `C=C(C)c1nn(Cc2ccc(-c3ccccc3C(=O)O)cc2)c2ccc(C(=O)NCCOC)cc12` [compound 51] yielded an IC50 (GST-PPARG-LBD; [2]) of 120 nM and an IC50 (GST-PPARG-LBD; [3]) of 166 nM.
For `CN(CCOc1ccc(CC2SC(=O)NC2=O)cc1)c1ccccn1` (centres unmarked) [rosiglitazone], the “activation of the PPRE reporter” value [1] was “about 5 fold”.
`Cc1nn(Cc2cccc(O[C@H](C)C(=O)O)c2)c2ccc(C(=O)N[C@@H](C)c3ccc(Br)cc3)cc12` [compound 54] showed an IC50 (GST-PPARG-LBD; [3]) of 21.6 nM.
In the case of `CCCCNC(=O)c1ccc2c(c1)c(C)nn2Cc1ccc(-c2ccccc2C(=O)O)cc1` [compound 35], the IC50 (GST-PPARG-LBD; [2]) is reported as 76.3 nM and the IC50 (GST-PPARG-LBD; [3]) is reported as 84.1 nM.
`Cc1nn(Cc2ccc(-c3ccccc3C(=O)O)cc2)c2ccc(C(=O)N[C@H](C)C3CCCCC3)cc12` [compound 30] gave an IC50 (GST-PPARG-LBD; [3]) of 21.6 nM.
`CC[C@H](NC(=O)c1ccc2c(c1)c(C)nn2Cc1ccc(-c2ccccc2C(=O)O)cc1)c1ccccc1` [compound 43] gave an IC50 (GST-PPARG-LBD; [3]) of 13 nM.
In the case of `COCCNC(=O)c1ccc2c(c1)c(C)nn2Cc1cccc(C#N)c1` [compound 58], the IC50 (GST-PPARG-LBD; [3]) is reported as 4770 nM.
`Cc1ccc([C@H](C)NC(=O)c2ccc3c(c2)c(C)nn3Cc2ccc(-c3ccccc3C(=O)O)cc2)cc1` [compound 27] was tested, and the IC50 (GST-PPARG-LBD; [3]) was 31.8 nM.
`Cc1nn(Cc2ccccn2)c2ccc(C(=O)N[C@@H](C)c3ccc(Br)cc3)cc12` [compound 57] showed an IC50 (GST-PPARG-LBD; [3]) of 877 nM.
`Cc1nn(Cc2ccc(-c3ccccc3C(=O)O)cc2)c2ccc(C(=O)N[C@@H](C)c3cccc(C4CC4)c3)cc12` [compound 29] was tested, and the IC50 (GST-PPARG-LBD; [3]) was 18.8 nM.
`Cc1nn(Cc2ccc(-c3ccccc3C(=O)O)cc2)c2ccc(C(=O)NC3CCCC3)cc12` [compound 21] showed an IC50 (GST-PPARG-LBD; [2]) of 11.5 nM and an IC50 (GST-PPARG-LBD; [3]) of 870 nM.
`Cc1nn(Cc2ccccc2)c2ccc(C(=O)N[C@@H](C)c3ccc(Br)cc3)cc12` [compound 52] gave an IC50 (GST-PPARG-LBD; [2]) of 713 nM and an IC50 (GST-PPARG-LBD; [3]) of 932 nM.
`Cc1nn(Cc2ccc(-c3ccccc3C(N)=O)cc2)c2ccc(C(=O)N[C@@H](C)c3ccc(Br)cc3)cc12` [compound 39] was tested, and the IC50 (GST-PPARG-LBD; [3]) was 16.1 nM.
Work on `CCC(NC(=O)c1ccc2c(c1)c(C(C)C)nn2Cc1ccc(-c2ccccc2C(=O)O)cc1)c1ccccc1` (centres unmarked) [compound 47] yielded an IC50 (GST-PPARG-LBD; [2]) of 1.85 nM and an IC50 (GST-PPARG-LBD; [3]) of 0.681 nM.
Compound `Cc1nn(Cc2ccc(-c3ccccc3C(=O)O)cc2)c2ccc(C(=O)NC3CCCCCC3)cc12` [compound 24] has an IC50 (GST-PPARG-LBD; [2]) of 204 nM and an IC50 (GST-PPARG-LBD; [3]) of 176 nM.
In the case of `COCCCNC(=O)c1ccc2c(c1)c(C)nn2Cc1ccc(-c2ccccc2C(=O)O)cc1` [compound 37], the IC50 (GST-PPARG-LBD; [2]) is reported as 1820 nM and the IC50 (GST-PPARG-LBD; [3]) is reported as 1740 nM.
`CCC(NC(=O)c1ccc2c(c1)c(C)nn2Cc1ccc(-c2ccccc2C(=O)O)cc1)c1ccccc1` (centres unmarked) [compound 28] gave an IC50 (GST-PPARG-LBD; [3]) of 0.579 nM.
With `Cc1nn(Cc2ccc(-c3ccccc3-c3nnn[nH]3)cc2)c2ccc(C(=O)N[C@@H](C)c3ccc(Br)cc3)cc12` [compound 41] the IC50 (GST-PPARG-LBD; [3]) was 2.6 nM.
With `Cc1nn(Cc2ccccc2C#N)c2ccc(C(=O)N[C@@H](C)c3ccc(Br)cc3)cc12` [compound 55] the IC50 (GST-PPARG-LBD; [3]) was 32.2 nM.
With `Cc1nn(Cc2ccc(-c3ccccc3C(=O)O)cc2)c2ccc(C(=O)NC3CCCCC3)cc12` [compound 23] the IC50 (GST-PPARG-LBD; [2]) was 560 nM and the IC50 (GST-PPARG-LBD; [3]) was 562 nM.
In the case of `Cc1nn(Cc2ccc(-c3ccccc3C(=O)O)cc2)c2ccc(C(=O)NCC3CCC(C)CC3)cc12` (centres unmarked) [compound 38], the IC50 (GST-PPARG-LBD; [2]) is reported as 118 nM and the IC50 (GST-PPARG-LBD; [3]) is reported as 82.8 nM.
For `Cc1nn(Cc2ccc(-c3ccccc3C(=O)O)cc2)c2ccc(C(=O)NC3CCC(C)CC3)cc12` (centres unmarked) [compound 25], the IC50 (GST-PPARG-LBD; [2]) was 255 nM and the IC50 (GST-PPARG-LBD; [3]) was 82.8 nM.
With `COc1ccc(C(=O)n2c(C)c(Cc3cccc(O[C@@H](C)C(=O)O)c3)c3cc(OC(F)(F)F)ccc32)cc1` [MRL24] the “transactivation of the reporter relative to rosiglitazone response” value [1] was “about 25 % of rosiglitazone response”.
With `Cc1nn(Cc2ccc(-c3ccccc3C(=O)O)cc2)c2ccc(C(=O)N[C@@H](C)c3cccc(C(C)C)c3)cc12` [compound 26] the IC50 (GST-PPARG-LBD; [2]) was 23.4 nM and the IC50 (GST-PPARG-LBD; [3]) was 94.8 nM.
`CC[C@H](NC(=O)c1ccc2c(c1)c(C(C)C)nn2Cc1ccc(-c2ccccc2C(=O)O)cc1)c1ccc(Br)cc1` [compound 49] was tested, and the IC50 (GST-PPARG-LBD; [3]) was 0.119 nM.
`COCCNC(=O)c1ccc2c(c1)c(C(C)C)nn2Cc1ccc(-c2ccccc2C(=O)O)cc1` [compound 46] showed an IC50 (GST-PPARG-LBD; [2]) of 359 nM and an IC50 (GST-PPARG-LBD; [3]) of 432 nM.
In the case of `Cc1nn(Cc2ccc(-c3ccccc3C(=O)O)cc2)c2ccc(C(=O)N[C@@H](C)c3ccc(Br)cc3)cc12` [compound 42], the IC50 (GST-PPARG-LBD; [2]) is reported as 9.83 nM and the IC50 (GST-PPARG-LBD; [3]) is reported as 2.8 nM.
`COC[C@H](C)NC(=O)c1ccc2c(c1)c(C)nn2Cc1ccc(-c2ccccc2C(=O)O)cc1` [compound 32] showed an IC50 (GST-PPARG-LBD; [3]) of 367 nM.
With `Cc1nn(Cc2ccc(-c3ccccc3C(=O)O)cc2)c2ccc(C(=O)N[C@@H]3COc4ccccc4C3)cc12` [compound 34] the IC50 (GST-PPARG-LBD; [3]) was 147 nM.
`Cc1nn(Cc2ccc(-c3ccccc3C#N)cc2)c2ccc(C(=O)N[C@@H](C)c3ccc(Br)cc3)cc12` [compound 40] was tested, and the IC50 (GST-PPARG-LBD; [2]) was 40.8 nM and the IC50 (GST-PPARG-LBD; [3]) was 37.7 nM.
`CC(C)c1nn(Cc2ccc(-c3ccccc3C(=O)O)cc2)c2ccc(C(=O)N[C@@H](C)c3ccc(Br)cc3)cc12` [compound 50] showed an IC50 (GST-PPARG-LBD; [2]) of 19.9 nM and an IC50 (GST-PPARG-LBD; [3]) of 15.2 nM.
For `Cc1nn(Cc2ccc(Cl)cc2)c2ccc(C(=O)N[C@@H](C)c3ccc(Br)cc3)cc12` [compound 53], the IC50 (GST-PPARG-LBD; [3]) was 1050 nM.
In the case of `Cc1nn(Cc2ccc(-c3ccccc3C(=O)O)cc2)c2ccc(C(=O)N[C@@H](C)C3CCCCC3)cc12` [compound 31], the IC50 (GST-PPARG-LBD; [3]) is reported as 41.7 nM.
